Legend:
MGC-803 = assay: Cytotoxicity against human MGC803 cells after 72 hrs by MTT assay; type: functional, cell-based; conditions: MGC-803, 72 h
NCI-H460 [1] = assay: Cytotoxicity against human NCI-H460 cells after 72 hrs by MTT assay; type: functional, cell-based; conditions: NCI-H460, 72 h
HepG2 = assay: Cytotoxicity against human HepG2 cells after 72 hrs by MTT assay; type: functional, cell-based; conditions: HepG2, 72 h
A549 = assay: Cytotoxicity against human A549 cells after 72 hrs by MTT assay; type: functional, cell-based; conditions: A549, 72 h
HCT-116 = assay: Cytotoxicity against human HCT116 cells after 72 hrs by MTT assay; type: functional, cell-based; conditions: HCT-116, 72 h
NCI-H460 [2] = assay: Cell cycle arrest in human NCI-H460 cells assessed as accumulation at diploid S phase at IC50 after 48 hrs by propidium iodide staining-based FACS analysis (reference value: 23.27%); type: functional
NCI-H460 [3] = assay: Cell cycle arrest in human NCI-H460 cells assessed as accumulation at diploid G1 phase at IC50 after 48 hrs by propidium iodide staining-based FACS analysis (reference value: 68.60%); type: functional
NCI-H460 [4] = assay: Induction of apoptosis in human NCI-H460 cells assessed as early apoptotic cells at 45 uM after 24 hrs by Annexin V-FITC/propidium iodide staining-based flow cytometry (reference value: 1.5%); type: functional
NCI-H460 [5] = assay: Induction of apoptosis in human NCI-H460 cells assessed as late apoptotic cells at 45 uM after 24 hrs by Annexin V-FITC/propidium iodide staining-based flow cytometry (reference value: 0.8%); type: functional
NCI-H460 [6] = assay: Cell cycle arrest in human NCI-H460 cells assessed as accumulation at diploid G2 phase at IC50 after 48 hrs by propidium iodide staining-based FACS analysis (reference value: 8.14%); type: functional

CC(C)C1=C[C@]23CC[C@@H]4[C@](C)(CCC[C@@]4(C)C(=O)O)[C@H]2C[C@H]1[C@H]1C(=O)OC(=O)[C@H]13
IC50 (MGC-803): 61.8 µM
IC50 (NCI-H460 [1]): > 100 µM
IC50 (HepG2): > 100 µM
IC50 (A549): 81.2 µM
IC50 (HCT-116): 98.7 µM

O=c1[nH]cc(F)c(=O)[nH]1 [FLUOROURACIL]
IC50 (MGC-803): 15.3 µM
IC50 (NCI-H460 [1]): 23.3 µM
Activity (NCI-H460 [2]): 28.07%
Activity (NCI-H460 [3]): 71.93%
IC50 (HepG2): 19.4 µM
Activity (NCI-H460 [4]): 16.8%
IC50 (A549): 20.1 µM
IC50 (HCT-116): 8.32 µM
Activity (NCI-H460 [5]): 6.5%
Activity (NCI-H460 [6]): 0%

Source: ChEMBL document CHEMBL3091442, “Synthesis and antitumor activity evaluation of maleopimaric acid N-aryl imide atropisomers” (Bioorg Med Chem Lett, 2013)
